Results from US4536335A, “Carbapenem antibiotics” (Bristol-Myers Company, priority 1983, dated 1985).
In brackets after ≈: the same amount, converted by molar mass. Like-named read-outs stand apart in the source and are kept apart here.

Experiments:
[1] = test system: E. cloacae A-9656; assay: In vitro MIC, tube dilution; format: cell-based; conditions: Enterobacter cloacae, A9656, tube dilution, Nutrient Broth, overnight incubation at 37° C.; additional data table
[2] = test system: S. pyogenes A-9604; assay: In vitro MIC, tube dilution; format: cell-based; conditions: Streptococcus pyogenes, A9604, tube dilution, Nutrient Broth, overnight incubation at 37° C.; additional data table
[3] = Blood levels in mice after intramuscular administration; format: in vivo; conditions: mouse, intramuscular dose of 20 mg/kg; 20 mg/kg
Description: Compounds were solubilized in 0.1 M phosphate buffer pH 7. Values are fro
a single test; 4 mice used per compound.
*t1/2 refers to halflife in minutes
**AUC refers to the area under the blood concentrationtime curve
(§1) Also shown is the urinary recovery in the mice.
Compounds were solubilized in 0.1 M phosphate buffer, pH 7.
Values based on a single test; 4 mice per compound.
*T1/2 refers to halflife in minutes

[4] = test system: P. mirabilis A-9900; assay: In vitro MIC, tube dilution; format: cell-based; conditions: Proteus mirabilis, A9900, tube dilution, Nutrient Broth, overnight incubation at 37° C.; additional data table
[5] = test system: E. coli A15119; assay: In vitro MIC, tube dilution; format: cell-based; conditions: tube dilution, Nutrient Broth, overnight incubation at 37° C.; additional data table
[6] = test system: S. aureus A-9606; assay: Protective effect in the intramuscular treatment of infected mice (PD50); format: in vivo; conditions: Staphylococcus aureus, A9606, im; mice infected i.p. (Ex. 2: 2 × 10^9 organisms; Ex. 4 and 5: ~9 × 10^7), treated i.m. 0 and 2 h postinfection; read-out: PD50/treatment, S. aureus A-9606
Experimental: The PD50 (dose in mg/kg required to give protection to 50% of the infected mice) is indicated.
were treated i.m. with drugs 0 and 2 h postinfection.

[7] = test system: E. cloacae A-9659; assay: In vitro MIC, tube dilution; format: cell-based; conditions: tube dilution, Nutrient Broth, overnight incubation at 37° C.; additional data table
Description: N-formimidoyl thienamycin was included as a comparison compound.

[8] = test system: P. aeruginosa A21213; assay: In vitro MIC, tube dilution; format: cell-based; conditions: Pseudomonas aeruginosa, A21213, tube dilution, Nutrient Broth, overnight incubation at 37° C.; additional data table
[9] = test system: E. coli A20341-1; assay: In vitro MIC, tube dilution; format: cell-based; conditions: tube dilution, Nutrient Broth, overnight incubation at 37° C.; additional data table
[10] = Half-life in phosphate buffer solution; format: physicochemical; conditions: 0.065 M, pH 7.4 phosphate buffer, 37° C.; listed as Fraction B
Experimental: A solution of para-nitrobenzyl 3-[2-(N-methylthiomorpholinium diphenylphosphate)ethylthio]-6α-[1'-(R)-hydroxyethyl]-7-oxo-1-azabicyclo[3.2.0]hept-2-ene-2-carboxylate (1.31 g, 1.76 mmol) in 0.1 M pH 7.4 phosphate buffer (48.8 mL), tetrahydrofuran (20 mL) and diethyl ether (20 mL) was hydrogenated over 10% pd/C (1.5 g) in a Parr shaker for 1 h at 40 psi. The reaction mixture was diluted with diethyl ether (40 mL) and the phases were separated. The organic phase was washed with water (2×5 mL). The aqueous phases were combined, filtered through a #52 hardened filter paper, washed with diethyl ether (2×20 mL) and pumped under vacuum. The aqueous solution was poured on a silica gel reverse phase column and the desired carbapenem was eluted with 5% acetonitrile-water.
To a solution of p-nitrobenzyl (5R,6S)-3-[2-(1-methylmorpholino)ethylthio]-6-[(R)-1-hydroxyethyl]-7-oxo-1-azabicyclo[3.2.0]hept-2-ene-2-carboxylate diphenylphosphate (0.360 g, 0.49 mmol) in 13 mL of phosphate buffer (0.05 M pH 7.4) was added 0.36 g of 10% palladium-on-charcoal, 20 mL of tetrahydrofuran and 20 mL of diethyl ether. This mixture was hydrogenated (Parr) at 32 psi for 1 h. The mixture was filtered through Celite and the filter pad was washed with H2 O and diethyl ether. The aqueous phase was separated and the pH was adjusted to 7.0 with additional pH 7.4 phosphate buffer. After removing residual organic solvents in vacuo the aqueous solution was applied to a C18 reverse-phase column.
To a solution of (5R,6S)paranitrobenzyl 3-[2-(1,4-dimethyl-1-piperazinium)ethylthio]-6-[1-(R)-hydroxyethyl]-7-oxo- 1-azabicyclo[3.2.0]hept-2-ene-2-carboxylate diphenylphosphate (0.47 g, 0.623 mmol) in wet tetrahydrofuran (25 mL) was added diethyl ether (25 mL), potassium phosphate monobasic-sodium hydroxide buffer (13 mL, pH 7.22) and 10% palladium on charcoal (0.47 g). The resulting mixture was hydrogenated at 23° C. under 40 psi for 1 h. The two layers were separated and the organic layer was extracted with water (2×7 mL).
To a cold (-10° C.) solution of (5R,6S)-3-[2 -(N-methyl-thiomorpholinium)ethylthio]-6-[1-(R)-hydroxyethyl]-7-oxo-1-azabicyclo(3.2.0)-hept-2-ene-2-carboxylate (608 mg, 1.65 mmol) in a 1:1 mixture of acetonitrile-water (9 mL) was added m-chloroperbenzoic acid (334.8 mg, 1.65 mmol) in small portion over a 1 hour period. The mixture was then diluted with water (15 mL) and washed with diethyl ether (3×15 mL).
A mixture of (5R,6S) paranitrobenzyl 3-[2-(1,4,4-trimethyl-1-piperazinium)ethylthio]-6-[1R-hydroxyethyl]-7-oxo- 1-azabicyclo(3.2.0)hept-2-ene-2-carboxylate bischloride (0.40 g, 0.68 mmol), phosphate buffer (30 mL, 0.05M, pH 7.0), tetrahydrofuran (10 mL), ether (30 mL) and 10% palladium on charcoal (0.40 g) was hydrogenated at 23° C. under 35 psi for 1 h. The two phases were separated. The organic phase was extracted with water (10 mL).

[11] = test system: S. marcescens A20019; assay: In vitro MIC, tube dilution; format: cell-based; conditions: tube dilution, Nutrient Broth, overnight incubation at 37° C.; additional data table
[12] = test system: P. vulgaris A21559; assay: In vitro MIC, tube dilution; format: cell-based; conditions: tube dilution, Nutrient Broth, overnight incubation at 37° C.; additional data table
[13] = test system: K. pneumoniae A20468; assay: In vitro MIC, tube dilution; format: cell-based; conditions: tube dilution, Nutrient Broth, overnight incubation at 37° C.; additional data table
[14] = Urinary recovery after intramuscular administration to mice; format: in vivo; conditions: mouse, intramuscular dose of 20 mg/kg, 0-6 hour collection, 360 min
Experimental: Compounds were solubilized in 0.1 M phosphate buffer pH 7. Values are from a single test; 4 mice per compound.
as §1
***Recovery based on 0-6 hour collection

[15] = test system: P. morganii A15153; assay: In vitro MIC, tube dilution; format: cell-based; conditions: tube dilution, Nutrient Broth, overnight incubation at 37° C.; additional data table
[16] = test system: S. faecalis A20688; assay: In vitro MIC, tube dilution; format: cell-based; conditions: tube dilution, Nutrient Broth, overnight incubation at 37° C.; additional data table
[17] = test system: S. aureus A-9537; assay: In vitro MIC, tube dilution; format: cell-based; conditions: Staphylococcus aureus, overnight incubation at 37° C., additional data table
[18] = test system: P. rettgeri A22424; assay: In vitro MIC, tube dilution; format: cell-based; conditions: tube dilution, Nutrient Broth, overnight incubation at 37° C.; additional data table
[19] = test system: S. pneumoniae A-9585; assay: In vitro MIC, tube dilution; format: cell-based; conditions: Streptococcus pneumoniae, A9585, Nutrient Broth, overnight incubation at 37° C., additional data table
[20] = test system: P. aeruginosa A-9843A; assay: In vitro MIC, tube dilution; format: cell-based; conditions: Pseudomonas aeruginosa, A9843A, Nutrient Broth, overnight incubation at 37° C., additional data table
[21] = test system: S. aureus A-9606 (Pen-res.); assay: In vitro MIC, tube dilution; format: cell-based; conditions: Staphylococcus aureus, Nutrient Broth, overnight incubation at 37° C., additional data table, read-out: MIC S. aureus (Pen-res.) A-9606
[22] = test system: K. pneumoniae A-9664; assay: In vitro MIC, tube dilution; format: cell-based; conditions: tube dilution, Nutrient Broth, overnight incubation at 37° C.; additional data table

In the case of `C[C@@H](O)[C@H]1C(=O)N2C(C(=O)[O-])=C(SCC[N+]3(C)CC[S+]([O-])CC3)C[C@H]12` (single isomer, unassigned) [Ex. 5 comp. B], the MIC [1] is reported as 0.25 µg/mL (≈ 0.643 µM), the MIC [2] is reported as 0.008 µg/mL (≈ 0.0206 µM) and the “Blood AUC” value [3] is reported as 4600 ng·h/mL. For the same compound, the “Blood Cmax” value [3] was 12600 ng/mL, the “Blood T1/2” value [3] was 0.167 h and the MIC [4] was 0.25 µg/mL (≈ 0.643 µM). The “MIC E. coli A15119” value [5] was 0.13 µg/mL (≈ 0.335 µM), the ED50 [6] was 0.39 mg/kg and the “MIC E. cloacae A-9659” value [7] was 0.5 µg/mL (≈ 1.29 µM). For the same compound, the MIC [8] was 32 µg/mL (≈ 82.4 µM), the “MIC E. coli A20341-1” value [9] was 0.13 µg/mL (≈ 0.335 µM) and the “T 1/2 (solution stability)” value [10] was 10.75 h. The “MIC S. marcescens A20019” value [11] was 0.25 µg/mL (≈ 0.643 µM), the “MIC P. vulgaris A21559” value [12] was 0.25 µg/mL (≈ 0.643 µM) and the “MIC K. pneumoniae A20468” value [13] was 0.5 µg/mL (≈ 1.29 µM). For the same compound, the “Urine Recovery” value [14] was 15 ± 3%, the “MIC M. morganii A15153” value [15] was 0.5 µg/mL (≈ 1.29 µM) and the “MIC S. faecalis A20688” value [16] was 1 µg/mL (≈ 2.57 µM). The MIC ([17]; A9537, 50% serum, tube dilution, read-out: MIC S. aureus-50% serum A-9537) was 0.06 µg/mL (≈ 0.154 µM), the MIC ([17]; A9537, tube dilution, Nutrient Broth, read-out: MIC S. aureus A-9537) was 0.03 µg/mL (≈ 0.0772 µM) and the “MIC P. rettgeri A22424” value [18] was 1 µg/mL (≈ 2.57 µM). For the same compound, the MIC [19] was 0.004 µg/mL (≈ 0.0103 µM), the MIC [20] was 63 µg/mL (≈ 162 µM) and the MIC [21] was 0.06 µg/mL (≈ 0.154 µM). For the same compound, the “MIC K. pneumoniae A-9664” value [22] was 0.25 µg/mL (≈ 0.643 µM).
